According to PubChem BioAssay AID248 (DTP/NCI, 2004):
Inconclusive results and toxic doses are left out. Cut-off read from the data, not from the text of the source: active = T/C of 150% or more; inactive = T/C below 125%.

Tested on: L1210 leukemia ip in BDF1 mice, survival T/C
Test: NCI In Vivo Anticancer Drug Screen. Data for tumor model L1210 Leukemia (intraperitoneal) in B6D2F1 (BDF1) mice
Conditions: endpoint: mean survival time, higher = longer survival
In short: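 Transplantable tumor model; survival measured in treated vs vehicle control mice. Value = treated/control.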

[1] = dose: 100.0 mg/kg/injection, schedule: Q01DX001 (ip), vehicle: Klucel (hydroxypropylcellulose) (HPC)
[2] = dose: 200.0 mg/kg/injection, schedule: Q01DX001 (ip), vehicle: Klucel (hydroxypropylcellulose) (HPC)

Measured: T/C

O=S(=O)(/N=C1C=C/C(=N/S(=O)(=O)c2ccccc2)C2C3C=CC(C3)C/12)c1ccccc1 (stereo not given)
inactive: dose: 100.0 mg/kg/injection, schedule: Q01DX009 (ip), vehicle: Klucel (hydroxypropylcellulose) (HPC) 109 % of control | dose: 100.0 mg/kg/injection, schedule: Q04DX003 (ip), vehicle: Klucel (hydroxypropylcellulose) (HPC) 94 % of control | dose: 200.0 mg/kg/injection, schedule: Q01DX009 (ip), vehicle: Klucel (hydroxypropylcellulose) (HPC) 103 % of control | dose: 200.0 mg/kg/injection, schedule: Q04DX003 (ip), vehicle: Klucel (hydroxypropylcellulose) (HPC) 97 % of control | dose: 400.0 mg/kg/injection, schedule: Q01DX009 (ip), vehicle: Klucel (hydroxypropylcellulose) (HPC) 95 % of control | dose: 400.0 mg/kg/injection, schedule: Q04DX003 (ip), vehicle: Klucel (hydroxypropylcellulose) (HPC) 92 % of control

O=C(c1ccccc1[N+](=O)[O-])N(O)c1ccc(/C=C/c2ccccc2)cc1
inactive: dose: 100.0 mg/kg/injection, schedule: Q01DX001 (ip), vehicle: carboxymethylcellulose (CMC) 93 % of control | dose: 200.0 mg/kg/injection, schedule: Q01DX001 (ip), vehicle: carboxymethylcellulose (CMC) 95 % of control | dose: 400.0 mg/kg/injection, schedule: Q01DX001 (ip), vehicle: carboxymethylcellulose (CMC) 95 % of control

CCOC(=O)C(Cc1ccc2ccccc2n1)C(=O)OCC
inactive: [1] 100 % of control | [2] 106 % of control | dose: 400.0 mg/kg/injection, schedule: Q01DX001 (ip), vehicle: Klucel (hydroxypropylcellulose) (HPC) 100 % of control

C[C@H]1CP(c2ccccc2)(c2ccccc2)(c2ccccc2)O[C@@]1(C(=O)c1ccccc1)c1ccccc1
inactive: dose: 12.5 mg/kg/injection, schedule: Q04DX003 (ip), vehicle: saline with Tween-80 100 % of control | dose: 25.0 mg/kg/injection, schedule: Q04DX003 (ip), vehicle: saline with Tween-80 100 % of control | dose: 50.0 mg/kg/injection, schedule: Q04DX003 (ip), vehicle: saline with Tween-80 94 % of control

Cc1ccc(C(Br)S(=O)(=O)c2ccccc2)cc1 (stereo not given)
inactive: dose: 100.0 mg/kg/injection, schedule: Q04DX002 (ip), vehicle: Klucel (hydroxypropylcellulose) (HPC) 97 % of control | dose: 200.0 mg/kg/injection, schedule: Q04DX002 (ip), vehicle: Klucel (hydroxypropylcellulose) (HPC) 86 % of control | dose: 400.0 mg/kg/injection, schedule: Q04DX002 (ip), vehicle: Klucel (hydroxypropylcellulose) (HPC) 111 % of control

CCN(CC)C(=S)[S][Sn]([Cl])([c]1ccccc1)[c]1ccccc1
inactive: dose: 5.0 mg/kg/injection, schedule: Q01DX001 (ip), vehicle: other 102 % of control | dose: 10.0 mg/kg/injection, schedule: Q01DX001 (ip), vehicle: other 104 % of control | dose: 20.0 mg/kg/injection, schedule: Q01DX001 (ip), vehicle: other 102 % of control | dose: 40.0 mg/kg/injection, schedule: Q01DX001 (ip), vehicle: other 102 % of control | dose: 80.0 mg/kg/injection, schedule: Q01DX001 (ip), vehicle: other 104 % of control

CNc1c(C)n(C)n(-c2ccccc2)c1=O.[Cl][Pd]([Cl])([Cl])[Cl]
inactive: dose: 50.0 mg/kg/injection, schedule: Q04DX003 (ip), vehicle: saline 106 % of control | dose: 100.0 mg/kg/injection, schedule: Q04DX003 (ip), vehicle: saline 111 % of control | dose: 200.0 mg/kg/injection, schedule: Q04DX003 (ip), vehicle: saline 100 % of control

COc1ccc(-n2c(=O)c(N=Nc3ccc(Cl)cc3)c(O)n(-c3ccccc3Cl)c2=S)cc1
inactive: dose: 50.0 mg/kg/injection, schedule: Q01DX001 (ip), vehicle: Klucel (hydroxypropylcellulose) (HPC) 106 % of control | [1] 97 % of control | [2] 95 % of control

COCC(C)C=O (stereo not given)
inactive: dose: 50.0 mg/kg/injection, schedule: Q01DX009 (ip), vehicle: saline with Tween-80 91 % of control | dose: 100.0 mg/kg/injection, schedule: Q01DX009 (ip), vehicle: saline with Tween-80 91 % of control | dose: 200.0 mg/kg/injection, schedule: Q01DX009 (ip), vehicle: saline with Tween-80 94 % of control

CC(C)(NC(=O)OCc1ccccc1)C(=O)O
inactive: dose: 100.0 mg/kg/injection, schedule: Q04DX003 (ip), vehicle: saline with Tween-80 98 % of control | dose: 200.0 mg/kg/injection, schedule: Q04DX003 (ip), vehicle: saline with Tween-80 95 % of control | dose: 400.0 mg/kg/injection, schedule: Q04DX003 (ip), vehicle: saline with Tween-80 101 % of control
